Reference: patent US4822780A, “Carboxamide compounds” (Otsuka Pharmaceutical Factory, Inc., priority 1987, dated 1989)

Tested on: vascular smooth muscles (thoracic aorta)
Assay: Calcium antagonistic action in vascular smooth muscles (spiral piece of thoracic aorta, Ca2+ dose-reaction curve in presence of KCl)
Format: cell-based, Male Wistar rats
Settings: isolated rat aorta spiral piece, 37° C.; KCl 5×10^-2 M; CaCl2 10^-4 to 3×10^-2 M; test compound 3×10^-7 to 10^-5 M; Van Rossum method; 5 samples
Method: Male Wistar rats weighing about 250 g were anesthetized with ether, hit hard in the occipital region, and the both common carotid arteries were cut to let blood, and the thoracic aorta was removed. Fat tissues depositing on the extracted blood vessel were removed, and a spiral piece of 2 mm×50 mm was prepared.
This spiral piece of aort was kept at 37° C., and was suspended in an organ bath containing Ca^2+ --free Krebs--Henseleit solution ventilated with mixed gas of 95% O2 and 5% CO2 and its contraction reaction was measured in the following method by way of an isotonic transducer.
In the first place, to the spiral piece deprived of Ca^2+, CaCl2 solution of 10^-4 to 3×10^-2 M was comulatively added in the presence of KCl of 5×10^-2 M, and the dose-reaction curve by Ca^2+ was determined, and after removing Ca^2+ again, the dose-reaction curve by Ca^2+ was determined in the presence of the test compound, and from the difference of these reactions, the pA2 value of Ca^2+ antagonistic action of the test compound was calculated. The concentration of the test compound was 3×10^-7 to 10^-5 M. (The pA2 value was calculated according to the method proposed by Van Rossum, J. M., in Arch. Int. Pharmarcodyn., 143, 299-330, 1963).

| Structure (SMILES) | pA2 value of Ca^2+ antagonistic action |
| --- | --- |
| CCOP(=O)(Cc1ccc(C(=O)N(Cc2ccccc2)c2ccc(OC)cc2)cc1)OCC [Example 56, 4-diethoxyphosphinylmethyl-N-benzyl-N-(4-methoxyphenyl)benzamide] | 6.99 ± 0.11 |
| CCOP(=O)(Cc1ccc(C(=O)Nc2ccccc2O)cc1)OCC [Example 13] | 6.52 ± 0.10 |
| CCOP(=O)(Cc1cccc(C(=O)N(Cc2ccc(C(=O)OC)cc2)c2ccccc2)c1)OCC [Example 74] | 6.50 ± 0.09 |
| CCOP(=O)(Cc1ccc(C(=O)N(Cc2ccc([N+](=O)[O-])cc2)c2ccccc2)cc1)OCC [Example 46] | 6.07 ± 0.12 |
| CCOP(=O)(Cc1ccc(C(=O)N(Cc2ccccc2)c2ccccc2)cc1)OCC [Example 45, 4-diethoxyphosphinylmethyl-N-benzyl-N-phenylbenzamide] | 6.75 ± 0.08 |
